# Reference: patent US20230017045A1, “PYRIDINE AND PYRIMIDINE CARBOXYLATE HERBICIDES AND METHODS OF USE THEREOF” (Dow AgroSciences LLC, priority 2017, published 2023)
# Test system: test plant species
# Assay: Post-emergent herbicidal activity test (greenhouse, foliar spray, visual growth reduction)
# Assay type: in vivo
# Details: post-emergence, 336 h, ALOMY: blackgrass (Alopecurus myosuroides), 140 g ai/ha, 14 days after application, read-out: Visual Growth Reduction (%) 14 Days After Application, ALOMY
# Method: Post-emergent Test: Seeds or nutlets of the desired test plant species were planted in Sun Gro Metro-Mix® 360 planting mixture, which typically has a pH of 6.0 to 6.8 and an organic matter content of about 30 percent, in plastic pots with a surface area of 64 square centimeters. In some aspects, to ensure good germination and healthy plants, a fungicide treatment and/or other chemical or physical treatment was applied. The plants were grown for 7-21 d in a greenhouse with an approximate 15 h photoperiod which was maintained at 23-29° C. during the day and 22-28° C. during the night. Nutrients and water were added on a regular basis and supplemental lighting was provided with overhead metal halide 1000-Watt lamps as necessary. Plants were used for testing when they reached the first or second true leaf stage. A weighed amount, determined by the highest rate to be tested, of each test compound was placed in a 25 mL glass vial and was dissolved in 4 mL of a 97:3 v/v mixture of acetone and DMSO to obtain concentrated stock solutions. […] The concentrated stock solutions obtained were diluted with 20 mL of an aqueous mixture containing acetone, water, isopropyl alcohol, DMSO, […] crop oil concentrate, and X-77 surfactant in a 48.5:39:10:1.5:1.0:0.02 v/v ratio to obtain spray solutions containing the application rate. Compound requirements are based upon a 12 mL application volume at a rate of 187 liters per hectare (L/ha). Formulated compounds were applied to the plant material with an overhead Mandel track sprayer equipped with […] nozzles calibrated to deliver 187 L/ha over an application area of 0.64 square meters at a spray height of 18 inches (43 cm) above the average plant canopy height. Control plants were sprayed in the same manner with the solvent blank. The treated plants and control plants were placed in a greenhouse as described above and watered by subirrigation to prevent wash-off of the test compounds. After 14 d, the condition of the test plants as compared with that of the nontreated and control plants was determined visually and scored on a scale of 0 to 100 percent where 0 corresponds to no injury and 100 corresponds to complete control. In the reporting of the results, Table A: Percent Growth Reduction Conversion Table was used.
row,SMILES,pest or weed control at 140 g/ha [%]
1,"COC(=O)c1nc(-c2cc3c(cc2Cl)OCO3)c(F)cc1Cl [F150, Methyl 3-chloro-6-(6-chlorobenzo[d] [1,3]oxol-5-yl)-5-fluoropicolinate]",0 to 29

# Same assay, conditions: post-emergence, 336 h, AMARE: redroot pigweed (Amaranthus retroflexus), 140 g ai/ha, 14 days after application, read-out: Visual Growth Reduction (%) 14 Days After Application, AMARE
row,SMILES,pest or weed control at 140 g/ha [%]
1,"COC(=O)c1nc(-c2cc3c(cc2Cl)OCO3)c(F)cc1Cl [F150, Methyl 3-chloro-6-(6-chlorobenzo[d] [1,3]oxol-5-yl)-5-fluoropicolinate]",75 to 84

# Same assay, conditions: post-emergence, 336 h, AVEFA: wild oat (Avena fatua), 140 g ai/ha, 14 days after application, read-out: Visual Growth Reduction (%) 14 Days After Application, AVEFA
row,SMILES,pest or weed control at 140 g/ha [%]
1,"COC(=O)c1nc(-c2cc3c(cc2Cl)OCO3)c(F)cc1Cl [F150, Methyl 3-chloro-6-(6-chlorobenzo[d] [1,3]oxol-5-yl)-5-fluoropicolinate]",0 to 29

# Same assay, conditions: post-emergence, 336 h, CHEAL: lambsquarters (Chenopodium album), 140 g ai/ha, 14 days after application, read-out: Visual Growth Reduction (%) 14 Days After Application, CHEAL
row,SMILES,pest or weed control at 140 g/ha [%]
1,"COC(=O)c1nc(-c2cc3c(cc2Cl)OCO3)c(F)cc1Cl [F150, Methyl 3-chloro-6-(6-chlorobenzo[d] [1,3]oxol-5-yl)-5-fluoropicolinate]",75 to 84

# Same assay, conditions: post-emergence, 336 h, CIRAR: canada thistle (Cirsium arvense), 140 g ai/ha, 14 days after application, read-out: Visual Growth Reduction (%) 14 Days After Application, CIRAR
row,SMILES,pest or weed control at 140 g/ha [%]
1,"COC(=O)c1nc(-c2cc3c(cc2Cl)OCO3)c(F)cc1Cl [F150, Methyl 3-chloro-6-(6-chlorobenzo[d] [1,3]oxol-5-yl)-5-fluoropicolinate]",85 to 94

# Same assay, conditions: post-emergence, 336 h, CYPES: yellow nutsedge (Cyperus esculentus), 140 g ai/ha, 14 days after application, read-out: Visual Growth Reduction (%) 14 Days After Application, CYPES
row,SMILES,pest or weed control at 140 g/ha [%]
1,"COC(=O)c1nc(-c2cc3c(cc2Cl)OCO3)c(F)cc1Cl [F150, Methyl 3-chloro-6-(6-chlorobenzo[d] [1,3]oxol-5-yl)-5-fluoropicolinate]",0 to 29

# Same assay, conditions: post-emergence, 336 h, DIGSA: crabgrass (Digitaria sanguinalis), 140 g ai/ha, 14 days after application, read-out: Visual Growth Reduction (%) 14 Days After Application, DIGSA
row,SMILES,pest or weed control at 140 g/ha [%]
1,"COC(=O)c1nc(-c2cc3c(cc2Cl)OCO3)c(F)cc1Cl [F150, Methyl 3-chloro-6-(6-chlorobenzo[d] [1,3]oxol-5-yl)-5-fluoropicolinate]",0 to 29

# Same assay, conditions: post-emergence, 336 h, ECHCG: barnyardgrass (Echinochloa crus-galli), 140 g ai/ha, 14 days after application, read-out: Visual Growth Reduction (%) 14 Days After Application, ECHCG
row,SMILES,pest or weed control at 140 g/ha [%]
1,"COc1cc2c(cc1-c1ccc(Cl)c(C(=O)O)n1)OC(F)(F)O2 [F356, 3-Chloro-6-(2,2-difluoro-6-methoxybenzo[d][1,3]dioxol-5-yl)picolinic acid]",0 to 29
2,"COC(=O)c1nc(-c2cc3c(cc2Cl)OCO3)c(F)cc1Cl [F150, Methyl 3-chloro-6-(6-chlorobenzo[d] [1,3]oxol-5-yl)-5-fluoropicolinate]",0 to 29

# Same assay, conditions: post-emergence, 336 h, IPOHE: ivy-leaf morning glory (Ipomoea hederacea), 140 g ai/ha, 14 days after application, read-out: Visual Growth Reduction (%) 14 Days After Application, IPOHE
row,SMILES,pest or weed control at 140 g/ha [%]
1,"COc1cc2c(cc1-c1ccc(Cl)c(C(=O)O)n1)OC(F)(F)O2 [F356, 3-Chloro-6-(2,2-difluoro-6-methoxybenzo[d][1,3]dioxol-5-yl)picolinic acid]",95 to 100
2,"COC(=O)c1nc(-c2cc3c(cc2Cl)OCO3)c(F)cc1Cl [F150, Methyl 3-chloro-6-(6-chlorobenzo[d] [1,3]oxol-5-yl)-5-fluoropicolinate]",85 to 94

# Same assay, conditions: post-emergence, 336 h, KCHSC: kochia (Bassia scoparia), 140 g ai/ha, 14 days after application, read-out: Visual Growth Reduction (%) 14 Days After Application, KCHSC
row,SMILES,pest or weed control at 140 g/ha [%]
1,"COc1cc2c(cc1-c1ccc(Cl)c(C(=O)O)n1)OC(F)(F)O2 [F356, 3-Chloro-6-(2,2-difluoro-6-methoxybenzo[d][1,3]dioxol-5-yl)picolinic acid]",0 to 29
2,"COC(=O)c1nc(-c2cc3c(cc2Cl)OCO3)c(F)cc1Cl [F150, Methyl 3-chloro-6-(6-chlorobenzo[d] [1,3]oxol-5-yl)-5-fluoropicolinate]",45 to 59

# Same assay, conditions: post-emergence, 336 h, ORYSA: rice (Oryza sativa), 140 g ai/ha, 14 days after application, read-out: Visual Growth Reduction (%) 14 Days After Application, ORYSA
row,SMILES,pest or weed control at 140 g/ha [%]
1,"COc1cc2c(cc1-c1ccc(Cl)c(C(=O)O)n1)OC(F)(F)O2 [F356, 3-Chloro-6-(2,2-difluoro-6-methoxybenzo[d][1,3]dioxol-5-yl)picolinic acid]",0 to 29
2,"COC(=O)c1nc(-c2cc3c(cc2Cl)OCO3)c(F)cc1Cl [F150, Methyl 3-chloro-6-(6-chlorobenzo[d] [1,3]oxol-5-yl)-5-fluoropicolinate]",0 to 29

# Same assay, conditions: post-emergence, 336 h, SETFA: giant foxtail (Setaria faberi), 140 g ai/ha, 14 days after application, read-out: Visual Growth Reduction (%) 14 Days After Application, SETFA
row,SMILES,pest or weed control at 140 g/ha [%]
1,"COc1cc2c(cc1-c1ccc(Cl)c(C(=O)O)n1)OC(F)(F)O2 [F356, 3-Chloro-6-(2,2-difluoro-6-methoxybenzo[d][1,3]dioxol-5-yl)picolinic acid]",0 to 29
2,"COC(=O)c1nc(-c2cc3c(cc2Cl)OCO3)c(F)cc1Cl [F150, Methyl 3-chloro-6-(6-chlorobenzo[d] [1,3]oxol-5-yl)-5-fluoropicolinate]",30 to 44

# Same assay, conditions: post-emergence, 336 h, SORVU: grain sorghum (Sorghum vulgare), 140 g ai/ha, 14 days after application, read-out: Visual Growth Reduction (%) 14 Days After Application, SORVU
row,SMILES,pest or weed control at 140 g/ha [%]
1,"COc1cc2c(cc1-c1ccc(Cl)c(C(=O)O)n1)OC(F)(F)O2 [F356, 3-Chloro-6-(2,2-difluoro-6-methoxybenzo[d][1,3]dioxol-5-yl)picolinic acid]",30 to 44
2,"COC(=O)c1nc(-c2cc3c(cc2Cl)OCO3)c(F)cc1Cl [F150, Methyl 3-chloro-6-(6-chlorobenzo[d] [1,3]oxol-5-yl)-5-fluoropicolinate]",0 to 29

# Same assay, conditions: post-emergence, 336 h, STEME: common chickweed (Stellaria media), 140 g ai/ha, 14 days after application, read-out: Visual Growth Reduction (%) 14 Days After Application, STEME
row,SMILES,pest or weed control at 140 g/ha [%]
1,"COc1cc2c(cc1-c1ccc(Cl)c(C(=O)O)n1)OC(F)(F)O2 [F356, 3-Chloro-6-(2,2-difluoro-6-methoxybenzo[d][1,3]dioxol-5-yl)picolinic acid]",0 to 29
2,"COC(=O)c1nc(-c2cc3c(cc2Cl)OCO3)c(F)cc1Cl [F150, Methyl 3-chloro-6-(6-chlorobenzo[d] [1,3]oxol-5-yl)-5-fluoropicolinate]",0 to 29

# Same assay, conditions: post-emergence, 336 h, TRZAS: wheat, spring (Triticum aestivum), 140 g ai/ha, 14 days after application, read-out: Visual Growth Reduction (%) 14 Days After Application, TRZAS
row,SMILES,pest or weed control at 140 g/ha [%]
1,"COc1cc2c(cc1-c1ccc(Cl)c(C(=O)O)n1)OC(F)(F)O2 [F356, 3-Chloro-6-(2,2-difluoro-6-methoxybenzo[d][1,3]dioxol-5-yl)picolinic acid]",0 to 29
2,"COC(=O)c1nc(-c2cc3c(cc2Cl)OCO3)c(F)cc1Cl [F150, Methyl 3-chloro-6-(6-chlorobenzo[d] [1,3]oxol-5-yl)-5-fluoropicolinate]",0 to 29

# Same assay, conditions: post-emergence, 336 h, blackgrass (Alopecurus myosuroides), 14 Days After Application, 140 g ai/ha, read-out: Visual Growth Reduction (%) ALOMY
row,SMILES,pest or weed control at 140 g/ha [%]
1,"COc1cc2c(cc1-c1ccc(Cl)c(C(=O)O)n1)OC(F)(F)O2 [F356, 3-Chloro-6-(2,2-difluoro-6-methoxybenzo[d][1,3]dioxol-5-yl)picolinic acid]",0 to 29

# Same assay, conditions: post-emergence, 336 h, canada thistle (Cirsium arvense), 14 Days After Application, 140 g ai/ha, read-out: Visual Growth Reduction (%) CIRAR
row,SMILES,pest or weed control at 140 g/ha [%]
1,"COc1cc2c(cc1-c1ccc(Cl)c(C(=O)O)n1)OC(F)(F)O2 [F356, 3-Chloro-6-(2,2-difluoro-6-methoxybenzo[d][1,3]dioxol-5-yl)picolinic acid]",0 to 29

# Same assay, conditions: post-emergence, 336 h, crabgrass (Digitaria sanguinalis), 14 Days After Application, 140 g ai/ha, read-out: Visual Growth Reduction (%) DIGSA
row,SMILES,pest or weed control at 140 g/ha [%]
1,"COc1cc2c(cc1-c1ccc(Cl)c(C(=O)O)n1)OC(F)(F)O2 [F356, 3-Chloro-6-(2,2-difluoro-6-methoxybenzo[d][1,3]dioxol-5-yl)picolinic acid]",0 to 29

# Same assay, conditions: post-emergence, 336 h, lambsquarters (Chenopodium album), 14 Days After Application, 140 g ai/ha, read-out: Visual Growth Reduction (%) CHEAL
row,SMILES,pest or weed control at 140 g/ha [%]
1,"COc1cc2c(cc1-c1ccc(Cl)c(C(=O)O)n1)OC(F)(F)O2 [F356, 3-Chloro-6-(2,2-difluoro-6-methoxybenzo[d][1,3]dioxol-5-yl)picolinic acid]",60 to 74

# Same assay, conditions: post-emergence, 336 h, redroot pigweed (Amaranthus retroflexus), 14 Days After Application, 140 g ai/ha, read-out: Visual Growth Reduction (%) AMARE
row,SMILES,pest or weed control at 140 g/ha [%]
1,"COc1cc2c(cc1-c1ccc(Cl)c(C(=O)O)n1)OC(F)(F)O2 [F356, 3-Chloro-6-(2,2-difluoro-6-methoxybenzo[d][1,3]dioxol-5-yl)picolinic acid]",0 to 29

# Same assay, conditions: post-emergence, 336 h, wild oat (Avena fatua), 14 Days After Application, 140 g ai/ha, read-out: Visual Growth Reduction (%) AVEFA
row,SMILES,pest or weed control at 140 g/ha [%]
1,"COc1cc2c(cc1-c1ccc(Cl)c(C(=O)O)n1)OC(F)(F)O2 [F356, 3-Chloro-6-(2,2-difluoro-6-methoxybenzo[d][1,3]dioxol-5-yl)picolinic acid]",0 to 29

# Same assay, conditions: post-emergence, 336 h, yellow nutsedge (Cyperus esculentus), 14 Days After Application, 140 g ai/ha, read-out: Visual Growth Reduction (%) CYPES
row,SMILES,pest or weed control at 140 g/ha [%]
1,"COc1cc2c(cc1-c1ccc(Cl)c(C(=O)O)n1)OC(F)(F)O2 [F356, 3-Chloro-6-(2,2-difluoro-6-methoxybenzo[d][1,3]dioxol-5-yl)picolinic acid]",0 to 29
